{
  "source": "patent US20220281931A1",
  "about": "“CHEMICALLY INDUCIBLE POLYPEPTIDE POLYMERIZATION” (Dana-Farber Cancer Institute, Inc., priority 2019, published 2022)",
  "key": {"BCL6^5-360": {"biological_target": "T1, BCL6^5-360 (Homo sapiens, UniProt P41182)", "T1 construct": "size-exclusion chromatogram of purified BCL6^5-360 in the presence of DMSO; made in house; host or cells: Trichoplusia ni High Five insect cells, baculovirus", "assay": "Size-exclusion chromatography of purified recombinant BCL6", "assay_type": "biochemical", "details": "purified BCL6^5-360, 2 μM compound", "text": "The human wild-type and mutant versions of BCL6 (residue 5-129 or 5-360) and SIAH1 variants (residue 90-282 (substrate binding domain, SBD) or full length), were cloned in pAC-derived vectors. Baculovirus for protein expression (Invitrogen) was generated by transfection into Spodoptera frugiperda (Sf9) cells at a density of 0.9×10^6 cells/mL grown in ESF 921 media (Expression Systems), followed by three rounds of infection in Sf9 cells to increase viral titer. Recombinant proteins were expressed and purified as N-terminal His6 C-terminal Spy (wild-type and mutant versions of BCL6^5-360), N-terminal Strep II-Avi (BCL6^5-129, BCL6^5-360, and SIAH1^SBD), and N-terminal Flag (SIAH1^FL) fusions in Trichoplusiani High Five insect cells using the baculovirus expression system (Invitrogen)."}, "[1]": {"biological_target": "T2, BCL6-eGFP fusion construct (Homo sapiens, UniProt P41182)", "T2 construct": "expressed in transfected cells; host or cells: HEK293TCas9 cells, lentiviral transduction (Cilantro2 vector)", "assay": "Live cell imaging of BCL6-eGFP foci in HEK293T cells", "assay_type": "cell-based", "details": "HEK293T cells, full length BCL6 and eGFPBCL6^1-275, 1 μM", "experimental": "1×10^3 HEK293T cells per cm^2 were seeded in a μ-Slide 8 Well chamber (ibidi) and cultured for 18-24 h under standard growth conditions. Cell culture medium was exchanged to CO2 independent media (Gibco) and imaged with the DeltaVision Ultra High-Resolution Microscope (GE Healthcare, 100×lens, oil refraction index=1.520). The following acquisition parameters were used: Image size […], binning 1×1, GFP exposure time 0.08 sec. and the Neutral Density (% T) filter 32%. To capture foci within all cell volume, around 26μm per cell was imaged every 0.4-0.5 μm. Images were deconvolved (10 cycles, conservative conditions) and projected using maximal intensity by softWoRx® 7.0.0. Images for movies were taken every 10 minutes and combined to a movie by QuickTime."}, "BCL6": {"biological_target": "T3, BCL6 (Homo sapiens, UniProt P41182)", "T3 construct": "endogenous in cells; host or cells: SuDHL4 / SuDHL4Cas9 cells", "assay": "Cellular fractionation and immunoblot of BCL6", "assay_type": "cell-based", "details": "SuDHL4 cells, 1 μM, 24 hours", "experimental": "1×10^6 SuDHL4Cas9 cells were treated with DMSO or 1 μM BI-3802 for 24 h and fractionated using the CelLytic™NuCLEAR™Extraction Kit (Sigma-Aldrich) according to the manufacturer's protocol, resolved on a polyacrylamide gel, and immunoblotted for the indicated targets."}, "[2]": {"biological_target": "T4, eGFPBCL6 stability reporter (Homo sapiens, UniProt P41182)", "T4 construct": "the full length BCL6 (BCL6^FL) was fused in-frame with eGFP; expressed in transfected cells; host or cells: HEK293TCas9 cells, lentiviral transduction (Artichoke vector)", "assay": "Degradation of BCL6 reporter constructs in HEK293T cells (flow cytometry)", "assay_type": "cell-based", "details": "HEK293T cells, 1 μM, 1 hour", "experimental": "Lentivirus was packaged in HEK293T cells using TransIT (Mirus) and subsequently used for spin infection.\nHEK293TCas9 cells expressing indicated constructs in “Artichoke” or “Cilantro2” stability reporter vectors (PGK or SFFV Target-eGFP-IRES-mCherry, puromycin resistance) were plated in 96 well plates and treated for indicated times. BCL6-eGFP and mCherry expression were quantified by flow cytometry (CytoFLEX, Beckman or LSR Fortessa flow cytometer BD Biosciences). All degradation assays were done in at least triplicates. Geometric means of eGFP and mCherry fluorescent signals for live and mCherry positive cells were exported using flow cytometry analysis software (FlowJo, BD). Ratios of eGFP to mCherry were normalized to the average of DMSO-treated controls."}, "[3]": {"biological_target": "T5, StrepBCL6^5-360 / full length SIAH1 (Homo sapiens, UniProt P41182)", "T5 construct": "using Strep II-Avi-BCL6^5-360 and Flag-SIAH1^FL; made in house; host or cells: Trichoplusia ni High Five insect cells, baculovirus", "assay": "In vitro ubiquitination of BCL6 by SIAH1", "assay_type": "biochemical", "details": "recombinant polypeptides, 1 μM BI-3802 vs DMSO", "experimental": "(§1) In vitro ubiquitination for identification of compatible E2 conjugating enzymes was performed by following the manufacturer's instructions (K-982, Boston Biochem), using Strep II-Avi-BCL6^5-360 and Flag-SIAH1^FL. Time-course in vitro ubiquitination was performed by mixing the substrate (BCL6, 2 μM), E3 (SIAH, 0.5 μM), E1 (UBA1, Boston Biochem, 0.2 μM, E2 (UBE2D1, Boston Biochem, 0.5 μM), and ubiquitin (Boston Biochem, 50 μM), with a reaction buffer (B-71, Boston Biochem) containing BI-3802 or DMSO (normalized to 1% DMSO) in 15 μL volume each. Reactions were initiated by adding 5 μL of Mg-ATP solution (B-20, Boston Biochem), incubated for up to 60 min at 37° C., and analyzed by western blot using Strep tag II Antibody HRP conjugate (71591-3, Sigma) at 1:4,000. 0.8×10^6 cells/mL SuDHL4 cells were treated with DMSO or 0.5 μM E1 Inhibitor (3 h)+1 μM BI-3802 (I h) and 200 μL of the cell suspension was immobilized on a slide using the Cytospin™ 4 Cytocentrifuge (CytoSpin 4, A78300003; 6000 rpm, 6 min). Medium was aspirated and cells were fixed with 4% formaldehyde diluted in warm PBS for 15 min at room temperature. Slides were washed three times for 5 min with PBS, blocked and permeabilized with blocking solution (5% Normal Goat Serum (Cell Signaling), 0.3% Triton X-100 in PBS) for 60 min and stained with anti-BCL6 antibody in blocking solution overnight at 4° C. […]"}, "endogenous BCL6": {"biological_target": "T6, endogenous BCL6 (Homo sapiens, UniProt P41182)", "T6 construct": "endogenous in cells; host or cells: SuDHL4 / SuDHL4Cas9 cells", "assay": "Immunofluorescence of endogenous BCL6 in SuDHL4 cells", "assay_type": "cell-based", "details": "1 μM BI-3802, 1 hour", "experimental": "as §1"}, "[4]": {"biological_target": "T7, Nano-LuciferaseSIAH1^C44S and HaloTagBCL6 (Homo sapiens, UniProt P41182)", "T7 construct": "expressed in transfected cells; host or cells: HEK293T cells, transient transfection", "assay": "NanoBRET BCL6-SIAH1 interaction in HEK293T cells", "assay_type": "cell-based", "details": "1 μM, 2 hours", "experimental": "Bioluminescence resonance energy transfer (BRET) experiments were performed using a NanoBRET PPI starter kit (Promega N1821) according to the manufacturer's instructions and as previously described (Sperling, A. S. et al. Patterns of substrate affinity, competition, and degradation kinetics underlie biological activity of thalidomide analogs. Blood 134, 160-170, doi:10.1182/blood.2019000789 (2019))."}},
  "data": [
    {"smiles": "CNC(=O)COc1cc2cc(Nc3nc(N4C[C@H](C)C[C@H](C)C4)ncc3Cl)ccc2n(C)c1=O", "note": "[BI-3802, 2-((6-((5-chloro-2-((3S,5R)-3,5-dimethylpiperidin-1-yl)pyrimidin-4-yl)amino)-1-methyl-2-oxo-1,2-dihydroquinolin-3-yl)oxy)-N-methylacetamide]", "values": [
      {"measurement": "higher molecular weight species of recombinant BCL6", "setting": "BCL6^5-360", "value": "led to higher molecular weight species of BCL6"},
      {"measurement": "eGFP-containing BCL6 foci formation", "setting": "[1]", "value": "appearance of distinct eGFP-containing foci was observed within minutes"},
      {"measurement": "chromatin-bound BCL6 level", "setting": "BCL6", "value": "efficiently depleted chromatin-bound BCL6"},
      {"measurement": "degradation of full-length BCL6 reporter (eGFPBCL6^FL)", "setting": "[2]", "value": "induced degradation of the full-length BCL6 reporter"},
      {"measurement": "rate and magnitude of BCL6 ubiquitination by SIAH1", "setting": "[3]", "value": "accelerated"},
      {"measurement": "endogenous BCL6 foci formation", "setting": "endogenous BCL6", "value": "endogenous BCL6 also formed foci"},
      {"measurement": "effect on the BCL6-SIAH1 interaction in cells (mBRET signal)", "setting": "[4]", "value": "increased the interaction between BCL6 and SIAH1"}
    ]}
  ]
}
